Assay results: patent publication US9255101B2 (BIOPROJECT, priority 2012, dated 2016)

Experiments:
[1] = target: human H4 receptor (Homo sapiens, UniProt Q9H3N8); experiment: biochemical;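 note: radioligand displacement of a [3H]-labelled ligand from membranes of CHO cells stably expressing human H4 receptor, bound radioactivity counted on filters by liquid scintillation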

melting point	Ki [1]	Structure (SMILES)
163 °C	< 0.3 µM	CN1CCC(OC2c3ccccc3CCn3c(I)cnc32)CC1 (centres unmarked) [Example 3, 1-iodo-4-(1-methylpiperidin-4-yloxy)-9,10-dihydro-4H-3,10a-diaza-benzo[f]azulene]
100 °C	< 1 µM	CN1CC(COC2c3ccccc3CCn3cc(I)nc32)C1 (centres unmarked) [Example 7, 2-Iodo-4-(1-methylazetidin-3-ylmethoxy)-9,10-dihydro-4H-3,10a-diaza-benzo[f]azulene]
197 °C	< 1 µM	CN1CCC(OC2c3ccccc3CCn3cc(-c4ccc(N)cc4)nc32)CC1 (centres unmarked) [Example 16, 4-[4-(1-methylpiperidin-4-yloxy)-9,10-dihydro-4H-3,10a-diaza-benzo[f]azulen-2-yl]-phenylamine]
120 °C	< 0.3 µM	CN1CCC(OC2c3ccccc3CCn3cc(-c4ccc(NC(=O)C(C)(C)C)cc4)nc32)CC1 (centres unmarked) [Example 58, 2,2-dimethyl-N-{4-[4-(1-methylpiperidin-4-yloxy)-9,10-dihydro-4H-3,10a-diaza-benzo[f]azulen-2-yl]-phenyl}-propionamide]
130 °C	< 0.3 µM	CCCNC(=O)Nc1ccc(-c2cn3c(n2)C(OC2CCN(C)CC2)c2ccccc2CC3)cc1 (centres unmarked) [Example 60, 1-{4-[4-(1-methylpiperidin-4-yloxy)-9,10-dihydro-4H-3,10a-diaza-benzo[f]azulen-2-yl]-phenyl}-3-propyl-urea]
214 °C	< 0.3 µM	Cc1c(-c2ccc(N3CCOC3=O)cc2)nc2n1CCc1ccccc1C2OC1CCN(C)CC1 (centres unmarked) [Example 131, 3-{4-[1-methyl-4-(1-methylpiperidin-4-yloxy)-9,10-dihydro-4H-3,10a-diaza-benzo[f]azulen-2-yl]-phenyl}-oxazolidin-2-one]
59 °C	< 0.3 µM	Cc1c(I)nc2n1CCc1ccccc1C2OC1CCN(C)CC1 (centres unmarked) [Example 133, 2-iodo-1-methyl-4-(1-methylpiperidin-4-yloxy)-9,10-dihydro-4H-3,10a-diaza-benzo[f]azulene]
74 °C	< 0.03 µM	Cc1c(-c2ccsc2)nc2n1CCc1ccccc1C2OC1CCN(C)CC1 (centres unmarked) [Example 148, 1-methyl-4-(1-methylpiperidin-4-yloxy)-2-thiophen-3-yl-9,10-dihydro-4H-3,10a-diaza-benzo[f]azulene]
139 °C	< 0.3 µM	COc1ccccc1-c1nc2n(c1C)CCc1ccccc1C2OC1CCN(C)CC1 (centres unmarked) [Example 149, 2-(2-methoxyphenyl)-1-methyl-4-(1-methylpiperidin-4-yloxy)-9,10-dihydro-4H-3,10a-diaza-benzo[f]azulene]
168 °C	< 0.03 µM	Cc1c(-c2ccc(F)cc2)nc2n1CCc1ccccc1C2OC1CCN(C)CC1 (centres unmarked) [Example 154, 2-(4-fluorophenyl)-1-methyl-4-(1-methylpiperidin-4-yloxy)-9,10-dihydro-4H-3,10a-diaza-benzo[f]azulene]
158 °C	< 0.03 µM	Cc1c(-c2ccc(Cl)cc2)nc2n1CCc1ccccc1C2OC1CCN(C)CC1 (centres unmarked) [Example 155, 2-(4-chlorophenyl)-1-methyl-4-(1-methylpiperidin-4-yloxy)-9,10-dihydro-4H-3,10a-diaza-benzo[f]azulene]
133 °C	< 0.03 µM	Cc1ccc(-c2nc3n(c2C)CCc2ccccc2C3OC2CCN(C)CC2)c(Cl)c1 (centres unmarked) [Example 157, 2-(2-chloro-4-methylphenyl)-1-methyl-4-(1-methylpiperidin-4-yloxy)-9,10-dihydro-4H-3,10a-diaza-benzo[f]azulene]

Structure (SMILES)	melting point	Ki [1]
Cc1c(-c2ccc(C3=CCN(C(=O)OC(C)(C)C)CC3)cc2)nc2n1CCc1ccccc1C2OC1CCN(C)CC1 (centres unmarked) [Example 168, 4-{4-[1-methyl-4-(1-methyl-piperidin-4-yloxy)-9,10-dihydro-4H-3,10a-diaza-benzo[f]azulen-2-yl]-phenyl}-3,6-dihydro-2H-pyridine-1-carboxylic acid tert-butyl ester]	171 °C	< 0.03 µM
